Laboratory results taken from ChEMBL document CHEMBL3046038, “Antifeedant effects and chemical composition of essential oils from different populations of Lavandula luisieri L” (Biochem Syst Ecol, 2006).

Key:
[1] = test system: Spodoptera littoralis; test: Antifeedant activity against Spodoptera littoralis fed on compound treated artificial diet assessed as food ingested by choice feeding assay relative to control; format: functional
[2] = test system: Leptinotarsa decemlineata; test: Antifeedant activity against adult Leptinotarsa decemlineata fed on compound treated potato foliage by choice feeding assay; format: functional, organism-based
[3] = test system: Spodoptera littoralis; test: Antifeedant activity against […] Spodoptera littoralis fed on compound treated artificial diet by choice feeding assay; format: functional, organism-based
[4] = test system: Spodoptera littoralis; test: Antifeedant activity against Spodoptera littoralis fed on compound treated artificial diet assessed as larval weight gain by choice feeding assay relative to control; format: functional
[5] = test system: Myzus persicae; test: Antifeedant activity against apterous adult Myzus persicae (green peach aphid) fed on compound treated bell pepper assessed as settling on leaf by choice feeding assay (reference value: 52 to 70%); format: functional

EC50 [2] [microg/cm2] | EC50 [3] [microg/cm2] | SMILES | Activity [1] [%] | Activity [4] [%] | Activity [5] [%]
> 50 | > 50 | C=C1C(=O)C(C)=C(C)C1(C)C | 88 | 87 | 48
> 50 | > 50 | CC12CCC(CC1=O)C2(C)C (stereo not given) [CAMPHOR] | 83 | 97 | 40
> 50 | > 50 | CC12CCC(CC1)C(C)(C)O2 [EUCALYPTOL] | 95 | 96 | 37
> 50 | > 50 | CC12CCC(C1)C(C)(C)C2=O (stereo not given) [FENCHONE] | 91 | 100 | 30
